Assay results taken from patent US11252960B2 (KIMBERLY-CLARK WORLDWIDE, INC., priority 2017, dated 2022).

Key:
[1] = Determination of Dissociation Constant (pKa) by Potentiometric Titration Method; type: physicochemical; conditions: 22° C.
Method: Potentiometric Titration Method: A calibrated pH meter was used for the assay. 50 mL solution of each test/reference item solution (0.1 mg/mL) was added to four beakers (two for acid titration and two for base titration). 0.1 N Sodium hydroxide (NaOH) solution was prepared as titrant solution. The pH electrode was placed into the beaker containing test/reference item solution. The initial pH of the solution will be recorded. 100 μL of 0.1 N NaOH was added successively with stirring and the pH at each addition was recorded. Base titrations were carried out individually in duplicates until a sudden shift in the pH was observed.

[2] = type: physicochemical; conditions: pH 4.5
Method: This water was used as a test media for determining the solubility of test/reference items. Stock solutions of concentration 1 mg/mL for test items/reference items was prepared in methanol. The stock solution will be used for preparation of calibration curve standards. Calibration curve of test/reference items was prepared by serially dilution consisting of 4-5-6 concentrations in 96 well format. […] The method was as follows: Calibration curve of test items were prepared by serial dilution consisting of 8 concentrations. […] Water, 50:50). […] 40 mg of test items were weighed into tubes. […] The initial pH of the solubility samples were recorded. […] Then, the solutions were observed visually for any precipitation. […] An aliquot of the supernatant were diluted with equal volume of methanol. […] The samples were then transferred to UV plate and scanned at λmax of that particular test/reference item. Compound #12 was transferred to auto-sampler vials and submitted for LC-MS/MS analysis.

[3] = tested on: Aspergillus brasiliensis (ATCC 16404); assay: Anti-fungal Minimum Inhibitory Concentration (MIC) Method, microbroth dilution; type: cell-based; conditions: RPMI-1640, 35° C., 48 hours, pH 4.5-adjusted stock
Method: (§1) Anti-Bacterial and Anti-Fungal Minimum Inhibitory Concentration (MIC) Method Method: Microbroth Dilution Method (96-well format). Test item: […] Solvent: Sterile MilliQ water and 0.1 M Citrate Buffer pH 4.5 Media used: • Bacterial: Cation-Adjusted Mueller-Hinton Broth (CAMHB) • Fungi: RPMI-1640 Fungi: • Incubation Temperature: • 25° C. (Candida albicans) • 35° C. (Aspergillus brasiliensis) • Incubation Time: 48 hours • Inoculum Size: 5×10^4 cfu/mL • Strains: • Candida albicans (ATCC 10231) • Aspergillus brasiliensis (ATCC 16404) • End point: Inhibition of growth, Spectrophotometer Reading @ 600 nm • Reference standards: […] All solubilized and pH 4.5-adjusted test compounds were filter-sterilized before subjecting to MIC study. […] All the strains were inoculated on their respective agar medium and incubated under conditions/durations detailed above. • Preparation of inoculum: • The bacterial colony suspension in 0.85% saline was adjusted to 1 McFarland's standard using […] which was further diluted to 1:100 in CAMHB. The fungal suspension for inoculation was prepared in 0.85% saline from 6 days old culture (for mold, A. brasiliensis) and from 2 days old culture (for yeast, C. albicans) from Sabouraud Dextrose agar medium. […] Micro titer plates were prepared as per the CLSI recommendations. One hundred and seventy five microliters of Cation-adjusted Muller Hinton Broth (CAMHB) was added to the first column of a 96 well flat bottom plate, which is the media control. Second column is for the stocks of the test compounds and reference standards from which dilutions are made. Then 175 μL of CAMHB was added to the 5th, 8th and 11th columns, 75 μL of CAMHB to the 4th, 7th and 10th columns and 50 μL of CAMHB to the 3rd, 6th and 9th columns and the last column was the organism control.

[4] = tested on: Candida albicans (ATCC 10231); assay: as above; type: cell-based; conditions: RPMI-1640, 25° C., 48 hours, pH 4.5-adjusted stock
Method: as §1

[5] = tested on: Burkholderia cepacia (ATCC 25416); assay: Anti-bacterial Minimum Inhibitory Concentration (MIC) Method, microbroth dilution; type: cell-based; conditions: CAMHB, 37° C., 24 hours, pH 4.5-adjusted stock
Method: as §1, with “RPMI-1640 […]” for “RPMI-1640”

[6] = tested on: Staphylococcus aureus (ATCC 6538); assay: as above; type: cell-based; conditions: CAMHB, 37° C., 24 hours, pH 4.5-adjusted stock
Method: as §1, with “RPMI-1640 […]” for “RPMI-1640”

[7] = tested on: Pseudomonas aeruginosa (ATCC 9027); assay: as above; type: cell-based; conditions: CAMHB, 37° C., 24 hours, pH 4.5-adjusted stock
Method: as §1, with “RPMI-1640 […]” for “RPMI-1640”

[8] = tested on: Escherichia coli (ATCC 8739); assay: as above; type: cell-based; conditions: CAMHB, 37° C., 24 hours, pH 4.5-adjusted stock
Method: as §1, with “RPMI-1640 […]” for “RPMI-1640”

[9] = ultrapure water, pH 4.5, Table 1, 0.1 mg/ml
[10] = ultrapure water, pH 4.5, Table 3, 0.1 mg/ml

Row | Molecule | pKa [1, 9] | Solubility (wt %) [2] | MIC (%) A. brasiliensis ([3]; Table 1) | MIC (%) C. albicans ([4]; Table 1) | MIC (%) B. cepacia ([5]; Table 1) | MIC (%) S. Aureus ([6]; Table 1) | MIC (%) P. aeruginosa ([7]; Table 1) | MIC (%) E. coli ([8]; Table 1) | MIC (%) A. brasiliensis ([3]; Table 4) | MIC (%) C. albicans ([4]; Table 4) | MIC (%) B. cepacia ([5]; Table 4) | MIC (%) S. Aureus ([6]; Table 4) | MIC (%) P. aeruginosa ([7]; Table 4) | MIC (%) E. coli ([8]; Table 4) | also measured
1 | O=C(O)c1ccc(OCCO)cc1 [Compound 1, 4-(2-hydroxyethoxy) benzoic acid] | 4.95 | 0.2779 wt % | >0.165% | >0.165% | 0.082% | 0.041% | 0.082% | 0.165% |  |  |  |  |  |  | 
2 | O=C(O)c1ccc(OCC(O)CO)cc1 (centres unmarked) [Compound 2, 4-(2,3-dihydroxypropoxy) benzoic acid] | 4.6 | 0.343 wt % | >0.181% | >0.181% | 0.09% | 0.045% | 0.09% | 0.181% |  |  |  |  |  |  | 
3 | O=C(O)c1ccc(O[C@@H]2O[C@H](CO)[C@H](O)[C@H](O)[C@H]2O)cc1 [Compound 3, 4-{[(3R,4S,5R,6R)-3,4,5-trihydroxy-6-(hydroxymethyl)oxan-2-yl]oxy}benzoic acid] | 4.5 |  | >0.87% | >0.87% | >0.87% | >0.87% | >0.87% | >0.87% |  |  |  |  |  |  | MIC (%) A. brasiliensis ([3]; Table 1, listed as #3): > 0.87%; MIC (%) C. albicans ([4]; Table 1, listed as #3): > 0.87%; MIC (%) B. cepacia ([5]; Table 1, listed as #3): > 0.87%; MIC (%) S. Aureus ([6]; Table 1, listed as #3): > 0.87%; MIC (%) P. aeruginosa ([7]; Table 1, listed as #3): > 0.87%; MIC (%) E. coli ([8]; Table 1, listed as #3): > 0.87%
4 | O=C(O)c1ccc(OC2OC(CO)C(O)C2O)cc1 (centres unmarked) [Compound 4, 4-{[3,4-dihydroxy-5-(hydroxymethyl)oxolan-2-yl]oxy}benzoic acid] | 4.6 | >1.00 wt % | >1% | >1% | 0.25% | 0.125% | 0.5% | 1% |  |  |  |  |  |  | 
5 | O=C(O)c1ccc(OC2CC(O)C(CO)O2)cc1 (centres unmarked) [Compound 5, 4-{[4-hydroxy-5-(hydroxymethyl)oxolan-2-yl]oxy}benzoic acid] | 5.6 | 0.11 wt % | >0.069% | >0.069% | 0.034% | 0.017% | 0.034% | >0.069% |  |  |  |  |  |  | 
6 | O=C(O)c1ccc(OCCCCO)cc1 [Compound 6, 4-(4-hydroxybutoxy) benzoic acid] | 4.6 | 0.0667 wt % | >0.04% | >0.04% | 0.02% | 0.01% | 0.04% | 0.04% |  |  |  |  |  |  | 
7 | CC(O)COc1ccc(C(=O)O)cc1 (centres unmarked) [Compound 7, 4-(2-hydroxypropoxy) benzoic acid] | 5.6 | 0.123 wt % | >0.079% | >0.079% | 0.02% | 0.02% | 0.039% | 0.079% |  |  |  |  |  |  | 
8 | O=C(OCCO)c1ccccc1 [Compound 8, Benzoic acid 2-hydroxyethyl ester] |  | >1.0 wt % |  |  |  |  |  |  | 0.118% | 0.475% | 0.118% | 0.475% | 0.237% | 0.475% | pKa [1, 10]: > 7
9 | O=C(OCC(O)CO)c1ccccc1 (centres unmarked) [Compound 9, Benzoic acid 2,3-dihydroxypropyl ester] |  | >1.0 wt % |  |  |  |  |  |  | >1% | >1% | 0.25% | 0.25% | 0.5% | 0.5% | pKa [1, 10]: > 7; MIC (%) A. brasiliensis ([3]; Table 4, listed as #9): > 1.0%; MIC (%) C. albicans ([4]; Table 4, listed as #9): > 1.0%
10 | O=C(OCCCCO)c1ccccc1 [Compound 10, Benzoic acid 4-hydroxy-butyl ester] |  | 0.47 wt % |  |  |  |  |  |  | 0.028% | 0.115% | 0.057% | 0.057% | 0.115% | 0.115% | pKa [1, 10]: > 7
11 | O=C(OCCCO)c1ccccc1 [Compound 11, Benzoic acid 3-hydroxy-propyl ester] |  | 0.55 wt % |  |  |  |  |  |  | 0.068% | 0.136% | 0.136% | 0.272% | >0.272% | 0.272% | pKa ([1]; pH 4.5, Table 3, 0.1 mg/ml): > 7
12 | benzoic acid [reference compound] |  |  | 0.137% | 0.137% | 0.034% | 0.068% | 0.068% | 0.07% | 0.137% | 0.137% | 0.034% | 0.068% | 0.068% | 0.07% | 
